From ChEMBL document CHEMBL1129709, “(Hydroxyethyl) sulfonamide HIV-1 Protease inhibitors: Identification of the 2-methylbenzoyl moiety at P-2” (Bioorg Med Chem Lett, 1996)

Tests used:
[1] = molecular target: T1, Human immunodeficiency virus type 1 protease (Human immunodeficiency virus 1, UniProt Q72874); assay: Inhibitory activity against HIV-1 protease in spectrofluorimetric assay
CCRF-CEM [2] = assay: Toxic dose was evaluated against HIV-IIIB strain of HIV-1 in CEM cell culture assay; details: Homo sapiens, CEM cells; read-out: TD50 (the source's name)
CCRF-CEM [3] = assay: Antiviral activity was evaluated against HIV-IIIB strain of HIV-1 in CEM cell culture assay; assay type: functional, cell-based; details: Homo sapiens
[4] = molecular target: T1, Human immunodeficiency virus type 1 protease; assay: Inhibitory activity was evaluated against recombinant HIV-1 protease using spectrofluorimetric assay
[5] = Maximum concentration was evaluated in rats; assay type: ADME, organism-based; details: rat, in vivo
[6] = Bioavailability in rat; assay type: ADME, organism-based; details: in vivo
[7] = Half-life was evaluated in rats; assay type: ADME, organism-based; details: rat, in vivo

| SMILES | IC50 [1] [nM] | CC50 (CCRF-CEM [2]) [µM] | EC50 (CCRF-CEM [3]) [nM] | also measured |
| --- | --- | --- | --- | --- |
| COc1ccc(S(=O)(=O)N(CC(C)C)C[C@@H](O)[C@H](Cc2ccccc2)NC(=O)c2ccccc2C(C)C)cc1 | 49 |  |  |  |
| COc1ccc(S(=O)(=O)N(CC(C)C)C[C@@H](O)[C@H](Cc2ccccc2)NC(=O)c2ccccc2O)cc1 | 900 |  |  |  |
| COc1ccc(S(=O)(=O)N(CC(C)C)C[C@@H](O)[C@H](Cc2ccccc2)NC(=O)c2ccc(O)cc2C)cc1 |  | > 10 | 9 | IC50 [4]: 5 nM |
| COc1ccc(S(=O)(=O)N(CC(C)C)C[C@@H](O)[C@H](Cc2ccccc2)NC(=O)c2ccccc2C)cc1 |  |  | 200 |  |
| COc1ccc(S(=O)(=O)N(CC(C)C)C[C@@H](O)[C@H](Cc2ccccc2)NC(=O)c2ccccc2C(F)(F)F)cc1 | 37 |  |  |  |
| COc1ccc(S(=O)(=O)N(CC(C)C)C[C@@H](O)[C@H](Cc2ccccc2)NC(=O)c2cc(O)ccc2C)cc1 |  | > 10 |  | IC50 [4]: 40 nM |
| COc1ccc(S(=O)(=O)N(CC(C)C)C[C@@H](O)[C@H](Cc2ccccc2)NC(=O)c2cccc(O)c2C)cc1 |  | > 10 | 7 | Cmax [5]: 270 ng/mL; bioavailability [6]: 12%; half-life [7]: 60 min |
| COc1ccc(S(=O)(=O)N(CC(C)C)C[C@@H](O)[C@H](Cc2ccccc2)NC(=O)c2cccc(C)c2)cc1 | 27 |  |  |  |
| COc1ccc(S(=O)(=O)N(CC(C)C)C[C@@H](O)[C@H](Cc2ccccc2)NC(=O)c2ccc(N)cc2C)cc1 |  |  | 18 |  |
| COc1ccc(S(=O)(=O)N(CC(C)C)C[C@@H](O)[C@H](Cc2ccccc2)NC(=O)c2cccc(N)c2C)cc1 |  | > 10 | 18 | Cmax [5]: 1800 ng/mL; bioavailability [6]: 54%; half-life [7]: 60 min |
| COc1ccc(S(=O)(=O)N(CC(C)C)C[C@@H](O)[C@H](Cc2ccccc2)NC(=O)c2cc(N)ccc2C)cc1 |  | > 10 | 82 |  |
| COc1ccc(S(=O)(=O)N(CC(C)C)C[C@@H](O)[C@H](Cc2ccccc2)NC(=O)c2ccc(C)cc2)cc1 | 15 |  |  |  |
